# How the values were obtained:
# [1] = in vivo
# Experimental: The ongoing open-label extension (OLE) of PROPEL (NCT04138277; ATB200-07) evaluates long-term safety and efficacy of cipa/mig. Outcomes include 6 minute walk distance (6MWD), forced vital capacity (FVC), creatine kinase (CK) and hexose tetrasaccharide (Hex4) levels and safety. Data are reported as change from the PROPEL baseline to OLE week 52 (104 weeks after the PROPEL baseline).
# [2] = tested on: adult subjects with Pompe disease; assay: Pooled Studies ATB200-02/03/07: GSGC total score by exposure interval
# Experimental: The pooled efficacy analyses presented within this section include the outlier (Pool 2). […] Pooled efficacy analyses excluding the outlier subject (Pool 2A) were also performed.
# Note that a negative score indicates an improvement.
# [3] = tested on: adult subjects with late-onset Pompe disease (LOPD); assay: Study ATB200-03 (PROPEL): 6-minute walk test (6MWD); assay type: in vivo, human
# Experimental: Efficacy Analyses. The primary efficacy endpoint (i.e., change from baseline to Week 52 in 6MWD) was analyzed using a parametric analysis of covariance (ANCOVA) model to compare between the new treatment and the control. […] However, the baseline 6MWD could not be used in the model twice (both as a continuous and a categorical variable) due to the expected high point biserial correlation between them. Thus, the 6MWD continuous variable remained in the model but the categorical 6MWD was removed.
# (§1) The test for the primary endpoint was conducted first at the 1-sided 0.025 significance level, and if significant, the ordered key secondary endpoints were similarly tested at the same significance level. The statistical significance of the key secondary endpoints was interpreted following a hierarchical testing order, each at the 1-sided alpha level of 0.025. […] Primary analyses of efficacy were performed using the mixed-effect model for repeated measures (MMRM) for 6MWD in Intent-to-treat Observed Population (ITT) that includes all available, observed data without any missing data imputation (ITT-OBS) and analysis of covariance (ANCOVA) for all other endpoints in the Intent-to-Treat-Last Observation Carried Forward (ITT-LOCF) Population. A nonparametric randomization based ANCOVA was specified as the first sensitivity analysis for 6MWD and FVC. […] For the purposes of data presentation in this document, 2-sided p-values are reported hereafter, except as otherwise noted.
# Analysis of 6MWD was performed using an MMRM model with actual time point of assessments on the ITT-OBS and excluding the outlier Subject 4005-2511. Specifically, the dependent variable is the change from baseline in the assessment. Independent variables include the fixed, categorical effects of treatment, ERT status, and gender, as well as the fixed, continuous covariates of time of assessment (days), baseline 6MWD, baseline age, baseline weight, and baseline height, and the treatment-by-time interaction. A random intercept of subject is also included in the model. Change from baseline at Week 52 for each treatment group and the difference between treatment groups were then estimated with the LS means at Day 364, together with the 95% CIs.
# [4] = tested on: adult subjects with late-onset Pompe disease (LOPD); assay: Study ATB200-03 (PROPEL): MMT lower extremity score; assay type: in vivo, human; conditions: for CHG to Week 52 in MMT lower extremity score, LS Mean: MMRM, actual time point of assessments; for MMT lower extremity score CHG, LS means (SE): Week 52, ANCOVA
# Experimental: as §1
# [5] = tested on: adult subjects with late-onset Pompe disease (LOPD); assay: Study ATB200-03 (PROPEL): PROMIS-Fatigue; assay type: in vivo, human; conditions: for CHG to Week 52 in PROMIS-Fatigue total score, LS Mean: MMRM, actual time point of assessments, decrease indicates improvement; for PROMIS-Fatigue Short Form 8a total score CHG, LS means (SE): Week 52, ANCOVA
# Experimental: as §1
# [6] = Baseline, ITT, ERT-naïve Population excluding Subject 4005-2511
# [7] = Week 52-LOCF, ERT-experienced Population
# [8] = Week 52-LOCF, ITT excluding Subject 4005-2511
# [9] = Week 52-LOCF, ITT, ERT-naïve Population excluding Subject 4005-2511
# [10] = Week 52-Observed, ERT-experienced Population
# [11] = Week 52-Observed, ITT excluding Subject 4005-2511
# [12] = Week 52-Observed, ITT, ERT-naïve Population excluding Subject 4005-2511
# [13] = ERT-naïve excluding Subject 4005-2511
# [14] = ITT-LOCF, ERT-naïve Population excluding Subject 4005-2511
# [15] = ITT-OBS excluding Subject 4005-2511 (overall)
# [16] = ITT-OBS excluding Subject 4005-2511, ERT-naïve Subjects
# [17] = ITT-OBS, ERT-experienced Subjects
# [18] = Week 52-LOCF, ERT-naïve Population excluding Subject 4005-2511
# [19] = ITT-LOCF excluding Subject 4005-2511
# [20] = ITT-LOCF, ERT-experienced Population
substance,measurement,setting,value
"ATB200/miglustat: two-component therapy: cipaglucosidase alfa (ATB200) administered in conjunction with miglustat (AT2221), a stabilizer of cipaglucosidase alfa",patients who discontinued the OLE due to infusion-associated reactions,[1],Three
same,safety and tolerability up to 104 weeks,[1],No new safety signals were identified
same,mean (SD) change from baseline in GSGC total score,[2]; exposure >15 to ≤24 months (n=87),-0.86 (3.086)
same,mean (SD) change from baseline in GSGC total score,[2]; exposure >24 months (n=56),−1.12 (3.586)
same,mean (SD) change from baseline in GSGC total score,"[2]; exposure ≤15 months (n=123), negative = improvement",-0.51 (2.947)
alglucosidase alfa [reference compound],"6MWD Absolute Value, Mean",[3]; [6],420.94 meters
same,"6MWD Absolute Value, Median",[3]; [6],385.50 meters
same,6MWD CFBL at Week 52,[3]; ERT switch (ERT-experienced) population,0.0 m
same,6MWD CFBL at Week 52,"[3]; ERT switch (ERT-experienced) population, listed as Alglucosidase alfa",0.0 (7.2) m
same,6MWD CFBL at Week 52,[3]; ERT treatment naive population,38 m
same,6MWD CFBL at Week 52,"[3]; ERT treatment naive population, listed as Alglucosidase alfa",+38.3 (11.1) m
same,mean (SD) change in 6MWD from baseline to Week 52,[3]; ERT-experienced Population (n=95),0.7 (39.84) meters
same,mean (SD) change in 6MWD from baseline to Week 52,[3]; ERT-naïve Population excluding Subject 4005-2511 (n=27),38.3 (29.32) meters
same,mean (SD) change in 6MWD from baseline to Week 52,[3]; ITT population excluding Subject 4005-2511,8.0 (40.56) meters
same,"6MWD LS mean improvement from baseline, MMRM with actual time point of assessments","[3]; ITT-OBS excluding Subject 4005-2511, Week 52",8.3 m
same,"Change in 6MWD baseline to Week 52, LS means (SE) from MMRM","[3]; ITT-OBS, ERT-naïve Population excluding Subject 4005-2511",39.47 (17.15) meters
same,"CHG to week 52 in 6MWD, LS Mean (95% CI)","[3]; MMRM, actual time point of assessments, ITT-OBS Population excluding Subject 4005-2511 (overall)","8.3 (−2.2, 18.8) m"
same,"CHG to Week 52 in 6MWD, LS Mean","[3]; MMRM, actual time point of assessments, ITT-OBS excluding Subject 4005-2511, ERT-naïve Subjects",52.7
same,"CHG to Week 52 in 6MWD, LS Mean","[3]; MMRM, actual time point of assessments, ITT-OBS, ERT-experienced Subjects",0.9
same,"6MWD Absolute Value, Mean (SD)",[3]; [7],334.60 (129.506) meters
same,"6MWD Absolute Value, Median",[3]; [7],339.03 meters
same,"6MWD CHG, Mean (SD)",[3]; [7],−0.02 (39.345) meters
same,"6MWD CHG, Median",[3]; [7],−8.93 meters
same,"6MWD Absolute Value, Mean",[3]; [8],358.19 meters
same,"6MWD Absolute Value, Median",[3]; [8],370.00 meters
same,"6MWD CHG, Mean",[3]; [8],7.24 meters
same,"6MWD CHG, Median",[3]; [8],1.40 meters
same,"6MWD Absolute Value, Mean",[3]; [9],459.28 meters
same,"6MWD Absolute Value, Median",[3]; [9],446.50 meters
same,"6MWD CHG (change from baseline), Mean",[3]; [9],38.34 meters
same,"6MWD CHG (change from baseline), Median",[3]; [9],33.50 meters
same,"6MWD Absolute Value, Mean (SD)",[3]; [10],335.66 (131.666) meters
same,"6MWD Absolute Value, Median",[3]; [10],348.00 meters
same,"6MWD CHG, Mean (SD)",[3]; [10],0.70 (39.841) meters
same,"6MWD CHG, Median",[3]; [10],−8.65 meters
same,"6MWD Absolute Value, Mean",[3]; [11],359.70 meters
same,"6MWD Absolute Value, Median",[3]; [11],371.75 meters
same,"6MWD CHG, Mean",[3]; [11],8.02 meters
same,"6MWD CHG, Median",[3]; [11],3.15 meters
same,"6MWD Absolute Value, Mean",[3]; [12],459.28 meters
same,"6MWD Absolute Value, Median",[3]; [12],446.50 meters
same,"6MWD CHG (change from baseline), Mean",[3]; [12],38.34 meters
same,"6MWD CHG (change from baseline), Median",[3]; [12],33.50 meters
same,"LS Mean (SE), Change from Baseline in 6MWD","[3]; Week 52, ANCOVA, ITT-LOCF excluding outliers with externally studentized residuals >3",6.95 (6.951) meters
same,"6MWD CHG, LS mean (SE)","[3]; Week 52, MMRM, ITT-OBS excluding Subject 4005-2511",7.10 (7.043) meters
same,"6MWD CHG, LS means (SE)","[3]; Week 52, MMRM, ITT-OBS, ERT-experienced Population",0.59 (7.569) meters
same,6MWD CFBL at Week 52,[3]; overall ERT switch + ERT naïve population,7 m
same,6MWD CFBL at Week 52,"[3]; overall ERT switch + ERT naïve population, listed as Alglucosidase alfa",+7.2 (6.6) m
same,6MWD CFBL at Week 52,"[3]; overall ERT switch + ERT naïve population, listed as alglucosidase alfa/placebo",7 m
same,"MMT Lower Extremity Score Absolute Value, Mean",[4]; [6],33.57
same,"MMT lower extremity score Absolute Value, Median",[4]; [6],32.00
same,mean (SD) change in MMT lower extremity score from baseline to Week 52,[4]; ERT-experienced Population,0.9 (2.81)
same,mean (SD) change in MMT lower extremity score from baseline to Week 52,[4]; [13],1.0 (1.53)
same,"Change in MMT lower extremity score baseline to Week 52, LS means (SE) from ANCOVA",[4]; [14],0.69 (1.013)
same,"CHG to Week 52 in MMT lower extremity score, LS Mean",[4]; [15],0.7
same,"CHG to Week 52 in MMT lower extremity score, LS Mean",[4]; [16],−0.0
same,"CHG to Week 52 in MMT lower extremity score, LS Mean",[4]; [17],0.9
same,"MMT lower extremity score Absolute Value, Mean (SD)",[4]; [7],26.96 (6.802)
same,"MMT lower extremity score Absolute Value, Median",[4]; [7],28.00
same,"MMT lower extremity score CHG, Mean (SD)",[4]; [7],0.85 (2.811)
same,"MMT lower extremity score CHG, Median",[4]; [7],1.00
same,"MMT Lower Extremity Score Absolute Value, Mean",[4]; [18],34.57
same,"MMT Lower Extremity Score CHG (change from baseline), Mean",[4]; [18],1.00
same,"MMT Lower Extremity Score CHG (change from baseline), Median",[4]; [18],2.00
same,"MMT lower extremity score Absolute Value, Median",[4]; [18],34.00
same,"MMT lower extremity score Absolute Value, Mean (SD)",[4]; [8],28.53 (6.999)
same,"MMT lower extremity score Absolute Value, Median",[4]; [8],29.00
same,"MMT lower extremity score CHG, Mean (SD)",[4]; [8],0.88 (2.579)
same,"MMT lower extremity score CHG, Median",[4]; [8],1.00
same,"MMT lower extremity score CHG, LS means (SE)",[4]; [19],0.68 (0.603)
same,"MMT lower extremity score CHG, LS means (SE)",[4]; [20],0.90 (0.735)
same,mean (SD) change in MMT lower extremity score from baseline to Week 52,[4]; overall population,0.9 (2.58)
same,"PROMIS-Fatigue Short Form 8a Total Score Absolute Value, Median",[5]; [6],24.00
same,"PROMIS-Fatigue Short Form 8a Total Score Absolute Value, Mean","[5]; Baseline, ITT, ERT-naïve Population excluding Subject 4005-2511, score 8 to 40, lower = less fatigue",24.13
same,mean (SD) change in PROMIS-Fatigue total score from baseline to Week 52,[5]; ERT-experienced Population,−0.5 (5.72)
same,mean (SD) change in PROMIS-Fatigue total score from baseline to Week 52,[5]; [13],−5.4 (6.61)
same,"Change in PROMIS-Fatigue total score baseline to Week 52, LS means (SE) from ANCOVA",[5]; [14],−6.28 (2.757)
same,"CHG to Week 52 in PROMIS-Fatigue total score, LS Mean",[5]; [15],−1.7
same,"CHG to Week 52 in PROMIS-Fatigue total score, LS Mean",[5]; [16],−4.9
same,"CHG to Week 52 in PROMIS-Fatigue total score, LS Mean",[5]; [17],−0.7
same,"PROMIS-Fatigue Short Form 8a Total Score Absolute Value, Mean",[5]; [7],19.87
same,"PROMIS-Fatigue Short Form 8a Total Score Absolute Value, Median",[5]; [7],18.00
same,"PROMIS-Fatigue Short Form 8a Total Score CHG, Mean",[5]; [7],−0.50
same,"PROMIS-Fatigue Short Form 8a total score CHG, Median",[5]; [7],0.50
same,"PROMIS-Fatigue Short Form 8a Total Score Absolute Value, Mean",[5]; [18],16.43
same,"PROMIS-Fatigue Short Form 8a Total Score Absolute Value, Median",[5]; [18],15.00
same,"PROMIS-Fatigue Short Form 8a Total Score CHG (change from baseline), Mean",[5]; [18],−7.70
same,"PROMIS-Fatigue Short Form 8a Total Score CHG (change from baseline), Median",[5]; [18],−6.90
same,"PROMIS-Fatigue Short Form 8a Total Score Absolute Value, Median",[5]; [8],18.00
same,"PROMIS-Fatigue Short Form 8a total score Absolute Value, Mean (SD)",[5]; [8],19.41 (6.735)
same,"PROMIS-Fatigue Short Form 8a total score CHG, Mean (SD)",[5]; [8],−1.67 (6.623)
same,"PROMIS-Fatigue Short Form 8a total score CHG, Median",[5]; [8],−1.00
same,"PROMIS-Fatigue Short Form 8a total score CHG, LS means (SE)",[5]; [19],−1.94 (0.901)
same,"PROMIS-Fatigue Short Form 8a total score CHG, LS means (SE)",[5]; [20],−0.79 (0.953)
same,mean (SD) change in PROMIS-Fatigue total score from baseline to Week 52,[5]; overall population,-1.9 (0.90)

# Reference: patent US20260041744A1, “Methods for Treating Pompe Disease” (Amicus Therapeutics, Inc., priority 2022, published 2026)
